SMILES strings stand for the structures.

In the first assay the test system is AGS cells (KRAS^G12D). Put plainly: Detection of cell proliferation in vitro by MTT/MTS method (cell activity experiment). Type of assay: cell-based. The following applies: AGS cells; MTT/MTS; 3 days of drug treatment; read-out: AGS IC50. The procedure, abridged:
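KRAS G12D AGS cells seeded at 1000 per well, compound added 24 h later, 0.5% final DMSO. Viability read after 3 days of treatment by MTT (solubilised in DMSO) or MTS, 4 h, absorbance 490 nm. IC50 from dose–response curves versus DMSO control.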
On the technique in general: Tetrazolium assays rely on reduction of a dye to a coloured formazan, in cell work by metabolically active cells.
Regarding `C#Cc1c(F)ccc2cc(O)cc(-c3ccc4c(N5C[C@H]6CC[C@@H](C5)N6)nc(OC[C@]56CCCN5[C@@H](COC(=O)N(C)C)CC6)nc4c3)c12` [Example 153, ((3R,7aR)-7a-(((4-((1R, 5S)-3,8-diazabicyclo [3.2.1]octan-3-yl)-7-(8-ethynyl-7-fluoro-3-hydroxynaphthalen-1-yl)quinazolin-2-yl)oxy)methyl)hexahydro-1H-pyrrolizin-3-yl) methyl dimethylcarbamate], the IC50 came out at 190 nM.

The same assay, now with this note: Homo sapiens, AGS, 72 h, AGS cells; MTT/MTS; 3 days of drug treatment; read-out: AGS IC50.
In the case of `CCc1c(F)ccc2cc(O)cc(-c3ccc4c(N5C[C@H]6CC[C@@H](C5)N6)nc(OC[C@@]56CCCN5C[C@H](F)C6)nc4n3)c12` [Example 141, 4-(4-((1R,5S)-3,8-diazabicyclo[3.2.1]octan-3-yl)-2-(((2R,7aS)-2-fluorotetrahydro-1H-pyrrolizin-7a(5H)-yl)methoxy)pyrido[2,3-d]pyrimidin-7-yl)-5-ethyl-6-fluoronaphthalen-2-ol], the half-maximal inhibitory concentration (IC50) is greater than 2500 nM. On the same count and under the same terms, the result for `Oc1cc(-c2ccc3c(N4C[C@H]5CC[C@@H](C4)N5)nc(OC[C@@]45CCCN4C[C@H](F)C5)nc3n2)c2c(F)c(F)ccc2c1` [Example 142, 4-(4-((1R,5S)-3,8-diazabicyclo[3.2.1]octan-3-yl)-2-(((2R,7aS)-2-fluorotetrahydro-1H-pyrrolizin-7a(5H)-yl)methoxy)pyrido[2,3-d]pyrimidin-7-yl)-5,6-difluoronaphthalen-2-ol] reads greater than 2500 nM. The same measure, in the same setting: the result for `Oc1cc(-c2ccc3c(N4C[C@H]5CC[C@@H](C4)N5)nc(OC[C@@]45CCCN4C[C@H](F)C5)nc3n2)c2c(F)cccc2c1` [Example 143, 4-(4-((1R,5S)-3,8-diazabicyclo[3.2.1]octan-3-yl)-2-(((2R,7aS)-2-fluorotetrahydro-1H-pyrrolizin-7a(5H)-yl)methoxy)pyrido[2,3-d]pyrimidin-7-yl)-5-fluoronaphthalen-2-ol] reads greater than 2500 nM; that for `C#Cc1cccc2cc(O)cc(-c3ccc4c(N5C[C@H]6CC[C@@H](C5)N6)nc(OC[C@@]56CCCN5C[C@H](F)C6)nc4n3)c12` [Example 144, 4-(4-((1R,5S)-3,8-diazabicyclo[3.2.1]octan-3-yl)-2-(((2R,7aS)-2-fluorotetrahydro-1H-pyrrolizin-7a(5H)-yl)methoxy)pyrido[2,3-d]pyrimidin-7-yl)-5-ethynylnaphthalen-2-ol], greater than 2500 nM.

For `C#Cc1c(F)ccc2cc(O)cc(-c3ccc4c(N5C[C@H]6CC[C@@H](C5)N6)nc(OC[C@]56CCCN5[C@@H](COC(=O)N(C)C)CC6)nc4n3)c12` [Example 145, ((3R,7aR)-7a-(((4-((1R, 5S)-3,8-diazabicyclo [3.2.1]octan-3-yl)-7-(8-ethynyl-7-fluoro-3-hydroxynaphthalen-1-yl)pyrido[2,3-d]pyrimidin-2-yl)oxy)methyl)hexahydro-1H-pyrrolizin-3-yl)methyl dimethylcarbamate], the half-maximal inhibitory concentration (IC50) was greater than 2500 nM. The same measure, in the same setting: the result for `CCc1c(F)ccc2cc(O)cc(-c3ccc4c(N5C[C@H]6CC[C@@H](C5)N6)nc(OC[C@]56CCCN5[C@@H](COC(=O)N(C)C)CC6)nc4n3)c12` [Example 146, ((3R,7aR)-7a-(((4-((1R, 5S)-3,8-diazabicyclo [3.2.1]octan-3-yl)-7-(8-ethyl-7-fluoro-3-hydroxynaphthalen-1-yl)pyrido[2,3-d]pyrimidin-2-yl)oxy)methyl)hexahydro-1H-pyrrolizin-3-yl)methyl dimethylcarbamate] reads greater than 2500 nM; that for `C#Cc1c(F)ccc2cccc(-c3ccc4c(N5C[C@H]6CC[C@@H](C5)N6)nc(OC[C@]56CCCN5[C@@H](COC(=O)N(C)C)CC6)nc4n3)c12` [Example 147, ((3R,7aR)-7a-(((4-((1R, 5S)-3,8-diazabicyclo [3.2.1]octan-3-yl)-7-(8-ethynyl-7-fluoronaphthalen-1-yl)pyrido[2,3-d]pyrimidin-2-yl)oxy)methyl)hexahydro-1H-pyrrolizin-3-yl)methyl dimethylcarbamate], greater than 2500 nM. Same read-out and setting: the result for `C#Cc1c(F)ccc2cc(O)cc(-c3ccc4c(N5C[C@H]6CC[C@@H](C5)N6)nc(OC[C@@]56CCCN5C[C@H](F)C6)nc4c3)c12` [Example 148, 4-(4-((1R,5S)-3,8-diazabicyclo[3.2.1]octan-3-yl)-2-(((2R, 7aS)-2-fluorotetrahydro-1H-pyrrolizin-7a(5H)-yl)methoxy)quinazolin-7-yl)-5-ethynyl-6-fluoronaphthalen-2-ol] reads 318 nM; that for `CCc1c(F)ccc2cc(O)cc(-c3ccc4c(N5C[C@H]6CC[C@@H](C5)N6)nc(OC[C@@]56CCCN5C[C@H](F)C6)nc4c3)c12` [Example 149, 4-(4-((1R,5S)-3,8-diazabicyclo[3.2.1]octan-3-yl)-2-(((2R, 7aS)-2-fluorotetrahydro-1H-pyrrolizin-7a(5H)-yl)methoxy)quinazolin-7-yl)-5-ethyl-6-fluoronaphthalen-2-ol], 320 nM.

For the molecule `Oc1cc(-c2ccc3c(N4C[C@H]5CC[C@@H](C4)N5)nc(OC[C@@]45CCCN4C[C@H](F)C5)nc3c2)c2c(F)c(F)ccc2c1` [Example 150, 4-(4-((1R,5S)-3,8-diazabicyclo[3.2.1]octan-3-yl)-2-(((2R, 7aS)-2-fluorotetrahydro-1H-pyrrolizin-7a(5H)-yl)methoxy)quinazolin-7-yl)-5,6-difluoronaphthalen-2-ol], the concentration for half-maximal inhibition (IC50) stood at 330 nM.

Turning to `C#Cc1cccc2cc(O)cc(-c3ccc4c(N5C[C@H]6CC[C@@H](C5)N6)nc(OC[C@@]56CCCN5C[C@H](F)C6)nc4c3)c12` [Example 152, 4-(4-((1R,5S)-3,8-diazabicyclo[3.2.1]octan-3-yl)-2-(((2R, 7aS)-2-fluorotetrahydro-1H-pyrrolizin-7a(5H)-yl)methoxy)quinazolin-7-yl)-5-ethynylnaphthalen-2-ol], the IC50 was 318 nM. Same read-out and setting: the result for `CCc1c(F)ccc2cc(O)cc(-c3ccc4c(N5C[C@H]6CC[C@@H](C5)N6)nc(OC[C@]56CCCN5[C@@H](COC(=O)N(C)C)CC6)nc4c3)c12` [Example 154, ((3R,7aR)-7a-(((4-((1R, 5S)-3,8-diazabicyclo [3.2.1]octan-3-yl)-7-(8-ethyl-7-fluoro-3-hydroxynaphthalen-1-yl)quinazolin-2-yl)oxy)methyl)hexahydro-1H-pyrrolizin-3-yl) methyl dimethylcarbamate] reads 195 nM; that for `C#Cc1c(F)ccc2cccc(-c3ccc4c(N5C[C@H]6CC[C@@H](C5)N6)nc(OC[C@]56CCCN5[C@@H](COC(=O)N(C)C)CC6)nc4c3)c12` [Example 155, ((3R,7aR)-7a-(((4-((1R, 5S)-3,8-diazabicyclo [3.2.1]octan-3-yl)-7-(8-ethynyl-7-fluoronaphthalen-1-yl)quinazolin-2-yl)oxy)methyl)hexahydro-1H-pyrrolizin-3-yl)methyl dimethylcarbamate], 215 nM; that for `Oc1cc2c(c(-c3ccc4c(N5C[C@H]6CC[C@@H](C5)N6)nc(OC[C@@]56CCCN5C[C@H](F)C6)nc4c3F)c1)C1CC1C2` (stereo partly drawn) [Example 156, 2-(4-((1R,5S)-3,8-diazabicyclo[3.2.1]octan-3-yl)-8-fluoro-2-(((2R,7aS)-2-fluorotetrahydro-1H-pyrrolizin-7a(5H)-yl)methoxy)quinazolin-7-yl)-1,1a,6,6a-tetrahydrocyclopropa [a]inden-4-ol], 40 nM. The same measure, in the same setting: the result for `C#Cc1cccc2cc(O)cc(-c3ccc4c(N5C[C@H]6CC[C@@H](C5)O6)nc(OC[C@@]56CCCN5C[C@H](F)C6)nc4c3F)c12` [Example 157, 4-(4-((1R,5S)-8-oxa-3-azabicyclo[3.2.1]octan-3-yl)-8-fluoro-2-(((2R,7aS)-2-fluorotetrahydro-1H-pyrrolizin-7a(5H)-yl)methoxy)quinazolin-7-yl)-5-ethynylnaphthalen-2-ol] reads 330 nM; that for `C#Cc1c(F)ccc2cc(O)cc(-c3ccc4c(N5C[C@H]6CC[C@@H](C5)S6)nc(OC[C@@]56CCCN5C[C@H](F)C6)nc4c3F)c12` [Example 158, 4-(4-((1R,5S)-8-thia-3-azabicyclo[3.2.1]octan-3-yl)-8-fluoro-2-(((2R,7aS)-2-fluorotetrahydro-1H-pyrrolizin-7a(5H)-yl)methoxy)quinazolin-7-yl)-5-ethynyl-6-fluoronaphthalen-2-ol], 235 nM. Same read-out and setting: the result for `C#Cc1c(F)ccc2cc(O)cc(-c3ccc4c(N5CC6CCC(C5)[S+]6[O-])nc(OC[C@@]56CCCN5C[C@H](F)C6)nc4c3F)c12` (stereo partly drawn) [Example 159, (1R,5S,8R)-3-(7-(8-ethynyl-7-fluoro-3-hydroxynaphthalen-1-yl)-8-fluoro-2-(((2R,7aS)-2-fluorotetrahydro-1H-pyrrolizin-7a(5H)-yl)methoxy)quinazolin-4-yl)-8-thia-3-azabicyclo[3.2.1]octane 8-oxide] reads greater than 2500 nM; that for `C#Cc1c(F)ccc2cc(O)cc(-c3ccc4c(N5C[C@H]6CC[C@@H](C5)S6(=O)=O)nc(OC[C@@]56CCCN5C[C@H](F)C6)nc4c3F)c12` [Example 160, (1R,5S)-3-(7-(8-ethynyl-7-fluoro-3-hydroxynaphthalen-1-yl)-8-fluoro-2-(((2R,7aS)-2-fluorotetrahydro-1H-pyrrolizin-7a(5H)-yl)methoxy)quinazolin-4-yl)-8-thia-3-azabicyclo[3.2.1]octane 8,8-dioxide], greater than 2500 nM. Consider `CCc1c(F)ccc2cc(O)cc(-c3ccc4c(N5C[C@H]6CC[C@@H](C5)S6)nc(OC[C@@]56CCCN5C[C@H](F)C6)nc4c3F)c12` [Example 161, 4-(4-((1R,5S)-8-thia-3-azabicyclo[3.2.1]octan-3-yl)-8-fluoro-2-(((2R,7aS)-2-fluorotetrahydro-1H-pyrrolizin-7a(5H)-yl)methoxy)quinazolin-7-yl)-5-ethyl-6-fluoronaphthalen-2-ol], for which the IC50 stood at 236 nM.

Regarding `CCc1c(F)ccc2cc(O)cc(-c3ccc4c(N5CC6CCC(C5)[S+]6[O-])nc(OC[C@@]56CCCN5C[C@H](F)C6)nc4c3F)c12` (stereo partly drawn) [Example 162, (1R,5S,8R)-3-(7-(8-ethyl-7-fluoro-3-hydroxynaphthalen-1-yl)-8-fluoro-2-(((2R,7aS)-2-fluorotetrahydro-1H-pyrrolizin-7a(5H)-yl)methoxy)quinazolin-4-yl)-8-thia-3-azabicyclo[3.2.1]octane 8-oxide], the IC50 was greater than 2500 nM.

What is called IC50 is the concentration that inhibits the measured activity by half.
